Experiments:
[1] = test system: stable BaF3-FGFR2 cells, dovitinib-resistant FGFR2 mutants; assay: BaF3 cell viability, panel of dovitinib-resistant FGFR2 mutations; details: FGF10-induced proliferation
Procedure: (§1) pEF1a.FGFR2b.IRES.neo or the various FGFR2b mutant plasmids were introduced into BaF3 cells using the Amaxa nucleofector kit V, according to the manufacturer's instructions (Amaxa, Walkersville, Md.). Cells were selected in growth media containing 1200 μg/ml G418 and 5 ng/ml IL3 for 14 days and frozen down.
(§2) After 72 hours, cell viability was measured using the ViaLight kit (Lonza, Walkersville, Md.). Values were normalized to DMSO vehicle control wells and IC50 values generated by nonlinear regression analysis with variable slope using Prism software version 4.0c (GraphPad Software, San Diego, Calif.). […] Following 72 hours of drug treatment, cell viability was assessed using the CyQUANT Cell Proliferation Assay Kit (Life Technologies, Carlsbad, Calif.). Values were normalized to DMSO vehicle control wells and IC50 values calculated as described above. Proliferation assays were performed in triplicate on two independent days and the results averaged.

BaF3/FGFR2b N550K = assay: BaF3 cell viability (ViaLight), FGFR2b N550K; assay type: cell-based, murine; details: for activity against or resistance of N550K, cell viability: BaF3 N550K
BaF3 FGFR2 K660E = assay: BaF3 cell viability, FGFR2 K660E
Procedure: as §1, §2

EN1078D = assay: Endometrial cancer cell viability, EN1078D; assay type: cell-based; details: 72 h
AN3CA = details: cited from earlier work
[2] = test system: JHUEM-2 cells expressing FGFR2N550K; assay: JHUEM-2 cells stably expressing FGFR2N550K, cell viability; assay type: cell-based; details: JHUEM-2 FGFR2N550K vs control lines (FIG. 8A)
[3] = test system: BaF3 cells expressing the E719G mutant FGFR2; assay: BaF3 cell viability, FGFR2b E719G; assay type: cell-based, murine; details: E719G alone vs wild-type FGFR2
BaF3 FGFR2 V565I = assay: BaF3 cell viability, FGFR2b V565I gatekeeper mutant; assay type: cell-based, murine
EI = assay: Endometrial cancer cell viability, EI; assay type: cell-based; details: 72 h
MFE296 = details: MFE296, carries N550K FGFR2 mutation; cited from earlier work
BaF3/FGFR2b wildtype = assay: BaF3 cell viability (ViaLight), wild-type FGFR2b; assay type: cell-based, murine; details: Mus musculus, BaF3, 72 h, read-out: IC50 value in BaF3/FGFR2b wildtype
[4] = test system: endometrial cancer cell lines; assay: Endometrial cancer cell line panel viability (CyQUANT); details: FGFR2 mutant and wild-type endometrial cancer lines, 72 hours
Procedure: as §2

EJ = assay: Endometrial cancer cell viability, EJ; assay type: cell-based; details: Homo sapiens, 72 h
MFE280 = details: MFE280, FGFR-mutant EC line; cited from earlier work

SMILES | sensitivity or resistance of the FGFR2 mutation panel, cell viability [1] | activity against or resistance of N550K, cell viability (BaF3/FGFR2b N550K) | activity against K660E activating mutation, cell viability (BaF3 FGFR2 K660E) | fold difference in IC50, N550K versus wildtype (BaF3/FGFR2b N550K; BaF3/FGFR2b N550K vs wildtype) | IC50 (BaF3/FGFR2b N550K; Mus musculus, BaF3, 72 h, read-out: IC50 value in N550K resistance cells) [µM] | IC50 (EN1078D) [µM] | growth arrest and cell death (AN3CA; FGFR-mutant EC line) | sensitivity to FGFR inhibition (AN3CA; carries N550K FGFR2 mutation) | fold increase in the IC50 [2] [fold] | resistance conferred by E719G mutation [3] | activity against or resistance of V565I gatekeeper mutation, cell viability (BaF3 FGFR2 V565I) | IC50 (EI) [µM] | sensitivity to FGFR inhibition (MFE296) | IC50 (BaF3/FGFR2b wildtype) [µM] | order of sensitivity across the cell line panel [4] | IC50 (EJ) [µM] | growth arrest and cell death (MFE280)
CNC(=O)c1cc(Oc2ccc(NC(=O)Nc3cc(C(C)(C)C)nn3-c3ccc4ncccc4c3)c(F)c2)ccn1 [DCC2036] | most FGFR2 kinase mutations except N550K from this BaF3 resistance screen are sensitive | – | – | – | – | – | – | – | – | – | – | – | – | – | – | – | –
CCN1CCN(c2ccc(Nc3cc(N(C)C(=O)Nc4c(Cl)c(OC)cc(OC)c4Cl)ncn3)cc2)CC1 [BGJ398] | all FGFR2 kinase mutations except the V565I from the mutation panel are sensitive | good activity | good activity | – | – | – | – | – | – | – | – | – | – | – | – | – | –
CCN(CC)CCCCNc1ncc2cc(-c3cc(OC)cc(OC)c3)c(NC(=O)NC(C)(C)C)nc2n1 [PD173074] | imparted resistance | greatest resistance | – | over 170 fold | 0.776 | > 4 | induced G1 growth arrest and cell death | sensitive | ~5 | did not induce resistance | greatest resistance | > 4 | sensitive | 0.0045 | least sensitive | > 4 | induced G1 growth arrest and cell death

Reference: patent US9254288B2, “Susceptibility of tumors to tyrosine kinase inhibitors and treatment thereof” (THE TRANSLATIONAL GENOMICS RESEARCH INSTITUTE, priority 2012, dated 2016)
